The subject of data set [1] is Tetrahymena cells. The data set is described as follows: Growth, morphology and senescence of Tetrahymena mass-transfer cultures with nucleoside analogs. It is filed as cell-based, Tetrahymena thermophila. On the procedure:
For analysis of macronuclear DNA from cultures containing the nucleoside analog AZT (Sigma), or controls lacking analog, at various timepoints during vegetative divisions, cells from stationary stock cultures were inoculated into 25 ml thymine-deficient Iso-sensitest broth (‘Isobroth’, Oxoid USA) in 250 ml flasks. Cultures were incubated at 30° C. with shaking (100 rpm) for 48 hours. Cells were counted and plated at 1000 cells/1.5 ml in 24-well plates (Falcon) and grown at 30° C., without shaking, for 48 hours. 5 μl of these log phase cells were used to inoculate 1 ml cultures (Isobroth) containing varied concentrations of nucleoside analog. Thereafter, every 2-4 days cells were transferred, either 5 μl per well, or 1-3 μl using a multi-pronged replicator into fresh 1 ml broth containing AZT. Remaining cells were pelleted and stored at −80° C. until processed for DNA analysis.
For analysis of macronuclear DNA from vegetative cultures containing the nucleoside analogs Ara-G (Calbiochem), ddG (Calbiochem), or ddI (Calbiochem), or controls lacking analog, stock cultures were grown overnight in 2% PPYS as described. Cells were counted and plated at 100 cells/2 ml in 2% PPYS containing varied amounts of analog, 1% DMSO (Fisher) (as a control for ddG and Ara-G), or 2% PPYS alone. Cells were replica plated into fresh medium every 2-6 days, and remaining cells were pelleted and stored at −80° C. until processed for DNA analysis.
To test whether such a phenotype could be produced by inhibitors of telomerase in Tetrahymena, duplicate log-phase cultures were grown for prolonged periods in the presence of varying concentrations of analogs. The growth and cell morphology of these cultures were monitored, and DNA was isolated at different times for telomere length analysis. […] From growth rate measurements it was calculated that the cells went through 150 to 250 cell generations in the course of this 50 day period.

Data set [2] deals with Tetrahymena cells. The data set is described as follows: Progeny formation (cycloheximide resistance) of Tetrahymena conjugated in the presence of analog. The format is cell-based, Tetrahymena thermophila. As to conditions: for # CHX-R: number of cycloheximide-resistant wells.

The values below come from patent US6551774B1, “Diagnostic methods for conditions associated with elevated cellular levels of telomerase activity” (Board of Regents, The University of Texas System, priority 1992, dated 2003).

SMILES strings stand for the structures.

`Cc1cn([C@H]2C[C@H](N=[N+]=[N-])[C@@H](CO)O2)c(=O)[nH]c1=O` [AZT]: the “effect on cell growth and survival” value in the data set on Tetrahymena cells [1] (5 or 10 mM in Isobroth medium) is “strongly inhibited cell growth and killed cells within a day”. Moreover, the senescence of cultures result in the data set on Tetrahymena cells [1] (up to 1 mM in Isobroth, 50-day continuous growth, ˜10^3 cells per transfer) is on record as “did not result in senescence”. Also, the “% CHX-R” value in the data set with Tetrahymena cells [2] (0.01 mM analog (head prints MM), first block for the analog) is 72%; in the data set on Tetrahymena cells [2] (0.01 mM analog (head prints MM), second block for the analog) it was 73%; in the data set with Tetrahymena cells [2] (0.1 mM analog (head prints MM), first block for the analog), 68%; with Tetrahymena cells [2] (0.1 mM analog (head prints MM), second block for the analog), 67%; in the data set on Tetrahymena cells [2] (1.0 mM analog (head prints MM), first block for the analog), 55%; in the data set on Tetrahymena cells [2] (1.0 mM analog (head prints MM), second block for the analog), 48%. The “% CHX-R” value in the data set on Tetrahymena cells [2] (5.0 mM analog (head prints MM), first block for the analog) stood at 63%; in the data set on Tetrahymena cells [2] (5.0 mM analog (head prints MM), second block for the analog), 53%. Also, the “# CHX-R” value with Tetrahymena cells [2] (0.01 mM analog, first block for the analog) is on record as 121; in the data set on Tetrahymena cells [2] (0.01 mM analog, second block for the analog), 67; in the data set with Tetrahymena cells [2] (0.1 mM analog, first block for the analog), 100; in the data set on Tetrahymena cells [2] (0.1 mM analog, second block for the analog), 128; in the data set on Tetrahymena cells [2] (1.0 mM analog, first block for the analog), 91; with Tetrahymena cells [2] (1.0 mM analog, second block for the analog) it was 60. Also, the “# CHX-R” value in the data set with Tetrahymena cells [2] (5.0 mM analog, first block for the analog) amounted to 75; in the data set on Tetrahymena cells [2] (5.0 mM analog, second block for the analog), 89. The “irreversible disruption of macronuclear development” value with Tetrahymena cells [2] (analog present during conjugation) was “little or no irreversible disruption”.
